The target in one test is Prothrombin (Homo sapiens, UniProt P00734). The test can be described thus: Inhibitory activity towards Thrombin.
For the next test, the target named is Serine protease 1 (Homo sapiens, UniProt P07477). Description: Inhibitory activity towards Trypsin.

Each structure is given as a SMILES string. pIC50, pKi: −log10 of the molar value.

Serine protease 1, sequence (P07477 whole entry): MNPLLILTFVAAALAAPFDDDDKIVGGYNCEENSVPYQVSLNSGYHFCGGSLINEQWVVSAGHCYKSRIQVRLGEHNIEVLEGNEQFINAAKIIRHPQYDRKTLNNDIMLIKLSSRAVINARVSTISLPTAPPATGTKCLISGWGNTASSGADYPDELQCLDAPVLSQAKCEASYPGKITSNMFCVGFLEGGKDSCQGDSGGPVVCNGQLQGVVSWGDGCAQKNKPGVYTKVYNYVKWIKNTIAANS

As to `N=C(N)NCCC[C@H](NC(=O)[C@@H]1CC[C@H]2CN(C(=O)CCc3ccccc3)CC(=O)N21)C(=O)c1nccs1`, at Prothrombin, the pKi was 9.22. The pIC50 at Serine protease 1 is 9.00.
For the molecule `N=C(N)N1CCCC(C[C@H](NC(=O)[C@@H]2CC[C@H]3CN(C(=O)CCc4ccccc4)CC(=O)N32)C(=O)c2nccs2)C1` (some centres undefined), the results for the pKi at Prothrombin and on Serine protease 1 were 8.46 and 5.40, respectively.

As a reminder, the pKi is the negative decadic logarithm of the Ki, by convention in mol/L. Usually pIC50 stands for the IC50 on a negative log10 scale, so that one unit is a factor of ten. Low readings indicate a large IC50, high ones a small IC50.
